{"source": "patent US5294617A", "about": "“Angiotensin II receptor blocking 2,3,6 substituted quinazolinones” (American Cyanamid Company, priority 1993, dated 1994)", "tested_on": "ANGIOTENSIN II (AII) VASOPRESSOR RESPONSE", "assay": "AII Challenge: angiotensin II vasopressor response in conscious spontaneously hypertensive rats", "format": "in vivo, Conscious Male Okamoto-Aoki SHR (rat)", "conditions": "for % Inhibition / Average Change: SHR n=2; for Response After AII / Response Change: individual rat, SHR", "source_text": "By administering a compound of this invention to a rat, and then challenging with angiotensin II, a blockage of the vasopressor response is realized.\nConscious Male Okamoto-Aoki SHR, 16-20 weeks old, weighing approximately 330 g are purchased from Charles River Labs (Wilmington, Mass.). Conscious rats are restrained in a supine position with elastic tape. The area at the base of the tail is locally anesthetized by subcutaneous infiltration with 2% procaine. The ventral caudal artery and vein are isolated, and a cannula made of polyethylene (PE) 10-20 tubing (fused together by heat) is passed into the lower abdominal aorta and vena cava, respectively. The cannula is secured, heparinized (1,000 I.U./ml), sealed and the wound is closed. The animals are placed in plastic restraining cages in an upright position. The cannula is attached to a Statham P23Db pressure transducer, and pulsatile blood pressure is recorded to 10-15 minutes with a Gould Brush recorder. (Chan et al., (Drug Development Res., 18:75-94, 1989).\nAngiotensin II (human sequence, Sigma Chem. Co., St. Louis, Mo.) of 0.05 and 0.1 ug/kg i.v. is injected into all rats (predosing response). Then a test compound, vehicle or a known angiotensin II antagonist is administered i.v., i.p. or orally to each set of rats. The two doses of angiotensin II are given to each rat again at 30, 60, 90, 120, 180, 240 and 300 minutes post dosing the compound or vehicle. The vasopressor response of angiotensin II is measured for the increase in systolic blood pressure in mmHg. The percentage of antagonism or blockade of the vasopressor response of angiotensin II by a compound is calculated using the vasopressor response (increase in systolic blood pressure) of angiotensin II of each rat predosing the compound as 100%. A compound is considered active if at 30 mg/kg i.v. it antagonized at least 50% of the response.", "key": {"[1]": {"conditions": "2 mg/kg i.v., AII 0.05 mcg/kg IV, 30 min post dose"}, "[2]": {"conditions": "2 mg/kg i.v., AII 0.05 mcg/kg IV, 60 min post dose"}, "[3]": {"conditions": "2 mg/kg i.v., AII 0.05 mcg/kg IV, 90 min post dose"}, "[4]": {"conditions": "2 mg/kg i.v., AII 0.05 mcg/kg IV, 120 min post dose"}, "[5]": {"conditions": "2 mg/kg i.v., AII 0.05 mcg/kg IV, 180 min post dose"}, "[6]": {"conditions": "2 mg/kg i.v., AII 0.1 mcg/kg IV, 30 min post dose"}, "[7]": {"conditions": "2 mg/kg i.v., AII 0.1 mcg/kg IV, 60 min post dose"}, "[8]": {"conditions": "2 mg/kg i.v., AII 0.1 mcg/kg IV, 90 min post dose"}, "[9]": {"conditions": "2 mg/kg i.v., AII 0.1 mcg/kg IV, 120 min post dose"}, "[10]": {"conditions": "2 mg/kg i.v., AII 0.1 mcg/kg IV, 180 min post dose"}, "[11]": {"conditions": "10 mg/kg i.v., AII 0.05 mcg/kg IV, 30 min post dose"}, "[12]": {"conditions": "10 mg/kg i.v., AII 0.05 mcg/kg IV, 60 min post dose"}, "[13]": {"conditions": "10 mg/kg i.v., AII 0.05 mcg/kg IV, 90 min post dose"}, "[14]": {"conditions": "10 mg/kg i.v., AII 0.05 mcg/kg IV, 120 min post dose"}, "[15]": {"conditions": "10 mg/kg i.v., AII 0.05 mcg/kg IV, 180 min post dose"}, "[16]": {"conditions": "10 mg/kg i.v., AII 0.05 mcg/kg IV, 240 min post dose"}, "[17]": {"conditions": "10 mg/kg i.v., AII 0.05 mcg/kg IV, 300 min post dose"}, "[18]": {"conditions": "10 mg/kg i.v., AII 0.1 mcg/kg IV, 30 min post dose"}, "[19]": {"conditions": "10 mg/kg i.v., AII 0.1 mcg/kg IV, 60 min post dose"}, "[20]": {"conditions": "10 mg/kg i.v., AII 0.1 mcg/kg IV, 90 min post dose"}, "[21]": {"conditions": "10 mg/kg i.v., AII 0.1 mcg/kg IV, 120 min post dose"}, "[22]": {"conditions": "10 mg/kg i.v., AII 0.1 mcg/kg IV, 180 min post dose"}, "[23]": {"conditions": "10 mg/kg i.v., AII 0.1 mcg/kg IV, 240 min post dose"}, "[24]": {"conditions": "10 mg/kg i.v., AII 0.1 mcg/kg IV, 300 min post dose"}, "[25]": {"conditions": "2 mg/kg i.v., AII 0.05 mcg/kg IV, 30 min post dose, 2 mg/kg"}, "[26]": {"conditions": "2 mg/kg i.v., AII 0.05 mcg/kg IV, 60 min post dose, 2 mg/kg"}, "[27]": {"conditions": "2 mg/kg i.v., AII 0.05 mcg/kg IV, 90 min post dose, 2 mg/kg"}, "[28]": {"conditions": "2 mg/kg i.v., AII 0.05 mcg/kg IV, 180 min post dose, 2 mg/kg"}, "[29]": {"conditions": "2 mg/kg i.v., AII 0.1 mcg/kg IV, 30 min post dose, 2 mg/kg"}, "[30]": {"conditions": "2 mg/kg i.v., AII 0.1 mcg/kg IV, 60 min post dose, 2 mg/kg"}}, "note": "“And” between values parts separate entries of the source, which are not always exact repeats. Equal entries are not always repeated."}
{"smiles": "CCCCc1nc2ccc([C@@H]3C[C@H](CO)ON3C)cc2c(=O)n1Cc1ccc(-c2ccccc2-c2nn[nH]n2)cc1", "note": "(relative stereo) [Example 15, CIS-2-butyl-6-5-(hydroxymethyl)-2-methyl-3-isoxazolidinyl]-3-[[2'-(1H-tetrazol-5[1,1'-biphenyl]-4-yl]methyl]-4(3H)-quinazolinone]", "values": [{"measurement": "% Inhibition", "setting": "[1]", "value": 43, "unit": "%"}, {"measurement": "Average Change", "setting": "[1]", "value": 26, "unit": "mmHg"}, {"measurement": "% Inhibition", "setting": "[2]", "value": 67, "unit": "%"}, {"measurement": "Average Change", "setting": "[2]", "value": 15, "unit": "mmHg"}, {"measurement": "% Inhibition", "setting": "[3]", "value": 67, "unit": "%"}, {"measurement": "Average Change", "setting": "[3]", "value": 15, "unit": "mmHg"}, {"measurement": "% Inhibition", "setting": "[4]", "value": 67, "unit": "%"}, {"measurement": "Average Change", "setting": "[4]", "value": 15, "unit": "mmHg"}, {"measurement": "% Inhibition", "setting": "[5]", "value": 43, "unit": "%"}, {"measurement": "Average Change", "setting": "[5]", "value": 26, "unit": "mmHg"}, {"measurement": "% Inhibition", "setting": "[6]", "value": 38, "unit": "%"}, {"measurement": "Average Change", "setting": "[6]", "value": 30, "unit": "mmHg"}, {"measurement": "% Inhibition", "setting": "[7]", "value": 45, "unit": "%"}, {"measurement": "Average Change", "setting": "[7]", "value": 26.5, "unit": "mmHg"}, {"measurement": "% Inhibition", "setting": "[8]", "value": 48, "unit": "%"}, {"measurement": "Average Change", "setting": "[8]", "value": 25, "unit": "mmHg"}, {"measurement": "% Inhibition", "setting": "[9]", "value": 62, "unit": "%"}, {"measurement": "Average Change", "setting": "[9]", "value": 18.5, "unit": "mmHg"}, {"measurement": "% Inhibition", "setting": "[10]", "value": 54, "unit": "%"}, {"measurement": "Average Change", "setting": "[10]", "value": 22.5, "unit": "mmHg"}, {"measurement": "% Inhibition", "setting": "[11]", "value": 78, "unit": "%"}, {"measurement": "Average Change", "setting": "[11]", "value": 10, "unit": "mmHg"}, {"measurement": "% Inhibition", "setting": "[12]", "value": 99, "unit": "%"}, {"measurement": "Average Change", "setting": "[12]", "value": 0.5, "unit": "mmHg"}, {"measurement": "% Inhibition", "setting": "[13]", "value": 89, "unit": "%"}, {"measurement": "Average Change", "setting": "[13]", "value": 5, "unit": "mmHg"}, {"measurement": "% Inhibition", "setting": "[14]", "value": 72, "unit": "%"}, {"measurement": "Average Change", "setting": "[14]", "value": 12.5, "unit": "mmHg"}, {"measurement": "% Inhibition", "setting": "[15]", "value": 56, "unit": "%"}, {"measurement": "Average Change", "setting": "[15]", "value": 20, "unit": "mmHg"}, {"measurement": "% Inhibition", "setting": "[16]", "value": 67, "unit": "%"}, {"measurement": "Average Change", "setting": "[16]", "value": 15, "unit": "mmHg"}, {"measurement": "% Inhibition", "setting": "[17]", "value": 70, "unit": "%"}, {"measurement": "Average Change", "setting": "[17]", "value": 13.5, "unit": "mmHg"}, {"measurement": "% Inhibition", "setting": "[18]", "value": 100, "unit": "%"}, {"measurement": "Average Change", "setting": "[18]", "value": 0, "unit": "mmHg"}, {"measurement": "% Inhibition", "setting": "[19]", "value": 80, "unit": "%"}, {"measurement": "Average Change", "setting": "[19]", "value": 9, "unit": "mmHg"}, {"measurement": "% Inhibition", "setting": "[20]", "value": 72, "unit": "%"}, {"measurement": "Average Change", "setting": "[20]", "value": 12.5, "unit": "mmHg"}, {"measurement": "% Inhibition", "setting": "[21]", "value": 72, "unit": "%"}, {"measurement": "Average Change", "setting": "[21]", "value": 12.5, "unit": "mmHg"}, {"measurement": "% Inhibition", "setting": "[22]", "value": 52, "unit": "%"}, {"measurement": "Average Change", "setting": "[22]", "value": 21.5, "unit": "mmHg"}, {"measurement": "% Inhibition", "setting": "[23]", "value": 52, "unit": "%"}, {"measurement": "Average Change", "setting": "[23]", "value": 21.5, "unit": "mmHg"}, {"measurement": "% Inhibition", "setting": "[24]", "value": 28, "unit": "%"}, {"measurement": "Average Change", "setting": "[24]", "value": "32,5 mmHg"}, {"measurement": "Response After AII", "setting": "[25]", "value": "237 mmHg and 255 mmHg"}, {"measurement": "Response Change", "setting": "[25]", "value": "22 mmHg and 30 mmHg"}, {"measurement": "Response After AII", "setting": "[2]", "value": 245, "unit": "mmHg"}, {"measurement": "Response After AII", "setting": "[26]", "value": 225, "unit": "mmHg"}, {"measurement": "Response Change", "setting": "[26]", "value": "25 mmHg and 5 mmHg"}, {"measurement": "Response After AII", "setting": "[27]", "value": "230 mmHg and 235 mmHg"}, {"measurement": "Response Change", "setting": "[27]", "value": "20 mmHg and 10 mmHg"}, {"measurement": "Response Change", "setting": "[4]", "value": 15, "unit": "mmHg"}, {"measurement": "Response After AII", "setting": "2 mg/kg i.v., AII 0.05 mcg/kg IV, 120 min post dose, 2 mg/kg", "value": "220 mmHg and 230 mmHg"}, {"measurement": "Response After AII", "setting": "[28]", "value": "220 mmHg and 250 mmHg"}, {"measurement": "Response Change", "setting": "[28]", "value": "17 mmHg and 35 mmHg"}, {"measurement": "Response After AII", "setting": "[29]", "value": "245 mmHg and 250 mmHg"}, {"measurement": "Response Change", "setting": "[29]", "value": "25 mmHg and 35 mmHg"}, {"measurement": "Response After AII", "setting": "[30]", "value": "255 mmHg and 235 mmHg"}, {"measurement": "Response Change", "setting": "[30]", "value": "35 mmHg and 18 mmHg"}]}
